This passage reports T/C results from PubChem BioAssay AID192 (DTP/NCI, 2004).

This experiment concerns BDF1 mice, B16 melanoma ip, median survival T/C. Put plainly: NCI In Vivo Anticancer Drug Screen. Data for tumor model B16 Melanoma (intraperitoneal) in B6D2F1 (BDF1) mice. Conditions: endpoint: median survival time, higher = longer survival. The method in brief:
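Read-out: survival or tumor size, given as treated/control ratio. Controls received vehicle only; animals bore transplantable tumors.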

Where [1] appears, read: dose: 25.0 mg/kg/injection, schedule: Q01DX009 (ip), vehicle: saline with Tween-80.
The mark [2] stands for this setting: dose: 50.0 mg/kg/injection, schedule: Q01DX009 (ip), vehicle: saline with Tween-80.
Setting [3] is: dose: 200.0 mg/kg/injection, schedule: Q01DX009 (ip), vehicle: saline with Tween-80.
Setting [4] is: dose: 6.25 mg/kg/injection, schedule: Q01DX009 (ip), vehicle: saline with Tween-80.
Setting [5] is: dose: 12.5 mg/kg/injection, schedule: Q01DX009 (ip), vehicle: saline with Tween-80.
Where [6] appears, read: dose: 100.0 mg/kg/injection, schedule: Q01DX009 (ip), vehicle: saline with Tween-80.
Where [7] appears, read: dose: 400.0 mg/kg/injection, schedule: Q01DX009 (ip), vehicle: saline with Tween-80.
The mark [8] stands for this setting: dose: 6.25 mg/kg/injection, schedule: Q01DX009 (ip), vehicle: saline.
The mark [9] stands for this setting: dose: 12.5 mg/kg/injection, schedule: Q01DX009 (ip), vehicle: saline.
The mark [10] stands for this setting: dose: 25.0 mg/kg/injection, schedule: Q01DX009 (ip), vehicle: saline.
Setting [11] is: dose: 100.0 mg/kg/injection, schedule: Q01DX009 (ip), vehicle: Klucel (hydroxypropylcellulose) (HPC).
The mark [12] stands for this setting: dose: 200.0 mg/kg/injection, schedule: Q01DX009 (ip), vehicle: Klucel (hydroxypropylcellulose) (HPC).
Where [13] appears, read: dose: 3.12 mg/kg/injection, schedule: Q01DX009 (ip), vehicle: saline.
The mark [14] stands for this setting: dose: 50.0 mg/kg/injection, schedule: Q01DX009 (ip), vehicle: saline.

Several values for one entry are separate records, joined by “and”; a condition that tells them apart may be missing. Equal entries are not always repeated. Inconclusive results and toxic doses are left out.

Regarding `CC(=O)Nc1ccn(C2OC(CO)C(O)C2O)c(=O)n1` (stereo not given), the T/C under setting [1] was 88 % of control, the T/C under setting [2] was 97 % of control and the T/C under setting [3] is 92 % of control.

For the compound `Cc1ccc(S(=O)(=O)Nc2c([N+](=O)[O-])cc([N+](=O)[O-])c3ccccc23)cc1`, the T/C is 107 % of control under setting [4], 100 % of control under setting [5] and 112 % of control under setting [1].

On to `CCOC(=O)c1cc(-c2ccc(Cl)cc2)nc2c(Cl)cc(Cl)cc12`, for which the T/C is 101 % of control under setting [6], 89 % of control under setting [3] and 88 % of control under setting [7].

Regarding `C[n+]1cccc(NC(=O)c2ccc(NC(=O)c3ccc(C(=O)Nc4ccc(NC(=N)N)cc4)cc3)cc2)c1`, the T/C runs as follows: (dose: 0.9 mg/kg/injection, schedule: Q01DX009 (ip), vehicle: saline) 102 % of control; (dose: 1.3 mg/kg/injection, schedule: Q01DX009 (ip), vehicle: saline) 94 % of control; (dose: 2.0 mg/kg/injection, schedule: Q01DX009 (ip), vehicle: saline) 116 % of control.

For `O=C(O)C1(C(=O)O)CCCCC1.[NH-]CC1(C[NH-])CCCCC1.[Pt+2]`, the T/C was 121 % of control under setting [8], 122 % of control under setting [9] and 122 % of control under setting [10].

Regarding `CCCCCCCCCCCCCCCCCS(=O)S(=O)O` (stereo not given), the T/C under setting [6] is 113 % of control, the T/C under setting [3] is 97 % of control and the T/C under setting [7] is 95 % of control.

`COc1cc2ccc3c(c2cc1OC)N(C)C(OC)c1cc2c(cc1-3)OCO2` (stereo not given): under “dose: 10.0 mg/kg/injection, schedule: Q01DX009 (ip), vehicle: saline with Tween-80”, the T/C is 119 % of control.

Turning to `COc1ccc(OCC(O)CN2CCN(c3ccc(Cl)cc3)CC2)cc1` (stereo not given), the T/C is 97 % of control (dose: 6.25 mg/kg/injection, schedule: Q01DX009 (ip), vehicle: Klucel (hydroxypropylcellulose) (HPC)); 105 % of control (dose: 12.5 mg/kg/injection, schedule: Q01DX009 (ip), vehicle: Klucel (hydroxypropylcellulose) (HPC)); 104 % of control (dose: 25.0 mg/kg/injection, schedule: Q01DX009 (ip), vehicle: Klucel (hydroxypropylcellulose) (HPC)); 111 % of control (dose: 50.0 mg/kg/injection, schedule: Q01DX009 (ip), vehicle: Klucel (hydroxypropylcellulose) (HPC)); 108 % of control under setting [11]; 105 % of control under setting [12].

As to `CCOc1ccc2c(ccc(/C=C\c3cc(C)c4cccnc4c3O)[n+]2C)c1`, the T/C reads like this: under setting [4], 102 % of control; under setting [5], 101 % of control.

As to `COC1NC(=O)NC(=O)C1=[N+]=[N-]` (stereo not given), where the note is “dose: 2.0 mg/kg/injection, schedule: Q01DX009 (ip), vehicle: water”, the T/C is 112 % of control.

With `[CH3][Sn]([CH3])([CH3])[O]C(=O)CCl`, the T/C by setting is: (dose: 0.02 mg/kg/injection, schedule: Q01DX009 (ip), vehicle: saline) 104 % of control; (dose: 0.05 mg/kg/injection, schedule: Q01DX009 (ip), vehicle: saline) 107 % of control; (dose: 0.1 mg/kg/injection, schedule: Q01DX009 (ip), vehicle: saline) 109 % of control; (dose: 0.19 mg/kg/injection, schedule: Q01DX009 (ip), vehicle: saline) 104 % of control; (dose: 0.2 mg/kg/injection, schedule: Q01DX009 (ip), vehicle: saline) 93 % of control; (dose: 0.75 mg/kg/injection, schedule: Q01DX009 (ip), vehicle: saline) 104 % of control.

With `Cc1ccccc1NC(=S)N(C)C`, the T/C by setting is: (dose: 6.25 mg/kg/injection, schedule: Q04DX003 (ip), vehicle: Klucel (hydroxypropylcellulose) (HPC)) 96 % of control; (dose: 12.5 mg/kg/injection, schedule: Q04DX003 (ip), vehicle: Klucel (hydroxypropylcellulose) (HPC)) 100 % of control; (dose: 25.0 mg/kg/injection, schedule: Q04DX003 (ip), vehicle: Klucel (hydroxypropylcellulose) (HPC)) 88 % of control and 100 % of control.

As to `C=C(Br)CNC(=O)CCC`, the T/C is 103 % of control (dose: 2.5 mg/kg/injection, schedule: Q01DX009 (ip), vehicle: saline); 112 % of control (dose: 5.0 mg/kg/injection, schedule: Q01DX009 (ip), vehicle: saline); 104 % of control (dose: 10.0 mg/kg/injection, schedule: Q01DX009 (ip), vehicle: saline).

With `C[C@H](CN1CC(=O)NC(=O)C1)N1CC(=O)NC(=O)C1`, the T/C (dose: 8.0 mg/kg/injection, schedule: Q01DX009 (ip), vehicle: saline) is 108 % of control; the T/C (dose: 16.0 mg/kg/injection, schedule: Q01DX009 (ip), vehicle: saline) was 120 % of control; the T/C (dose: 16.0 mg/kg/injection, schedule: Q01DX009 (ip), vehicle: water) is 107 % of control; the T/C (dose: 25.0 mg/kg/injection, schedule: Q04DX003 (ip), vehicle: water) is 111 % of control; the T/C (dose: 32.0 mg/kg/injection, schedule: Q01DX009 (ip), vehicle: water) was 111 % of control; the T/C (dose: 50.0 mg/kg/injection, schedule: Q04DX003 (ip), vehicle: water) was 94 % of control. For the same compound, the T/C is, setting by setting: (dose: 100.0 mg/kg/injection, schedule: Q04DX003 (ip), vehicle: water) 106 % of control; (dose: 128.0 mg/kg/injection, schedule: Q01DX009 (ip), vehicle: water) 101 % of control; (dose: 200.0 mg/kg/injection, schedule: Q04DX003 (ip), vehicle: water) 107 % of control.

For `CN(C)C1CC1c1ccccc1` (stereo not given), the T/C under setting [13] is 92 % of control; the T/C under setting [8] is 107 % of control; the T/C under setting [9] was 97 % of control; the T/C under setting [10] was 100 % of control; the T/C under setting [14] is 105 % of control; the T/C (dose: 100.0 mg/kg/injection, schedule: Q01DX009 (ip), vehicle: saline) was 98 % of control.

Take `O=C1OCC2C1Cc1cc(O)c(O)cc1C2c1ccc(O)c(O)c1` (stereo not given): the T/C runs as follows: under setting [11], 112 % of control; under setting [12], 94 % of control; (dose: 400.0 mg/kg/injection, schedule: Q01DX009 (ip), vehicle: Klucel (hydroxypropylcellulose) (HPC)) 105 % of control.

Consider `CN1CCC(CN2c3ccccc3Sc3ccccc32)C1` (stereo not given), for which the T/C under setting [13] is 105 % of control; the T/C under setting [8] is 89 % of control; the T/C under setting [9] was 94 % of control; the T/C under setting [10] is 107 % of control; the T/C under setting [14] was 92 % of control.

On to `Cc1cc(N)c2cc(NC(=O)CCCCCC(=O)Nc3ccc4nc(C)cc(N)c4c3)ccc2n1`, for which the T/C reads like this: under setting [5], 90 % of control; under setting [1], 98 % of control; under setting [2], 110 % of control.

In the case of `CCN(CC)CCCNc1nccc2c(C)c3[nH]c4ccncc4c3cc12`, the T/C reads like this: (dose: 0.37 mg/kg/injection, schedule: Q01DX009 (ip), vehicle: other) 115 % of control; (dose: 0.38 mg/kg/injection, schedule: Q01DX009 (ip), vehicle: other) 160 % of control; (dose: 0.75 mg/kg/injection, schedule: Q01DX009 (ip), vehicle: other) 171 % of control and 177 % of control; (dose: 1.5 mg/kg/injection, schedule: Q01DX009 (ip), vehicle: other) 163 % of control and 218 % of control; (dose: 3.0 mg/kg/injection, schedule: Q01DX009 (ip), vehicle: other) 163 % of control and 233 % of control; (dose: 6.0 mg/kg/injection, schedule: Q01DX009 (ip), vehicle: other) 188 % of control and 213 % of control.

As for `CCCCCCOCCN1CCN(CCCN2c3ccccc3Sc3ccc(C(F)(F)F)cc32)CC1`, the T/C reads like this: (dose: 0.5 mg/kg/injection, schedule: Q01DX009 (ip), vehicle: saline with Tween-80) 112 % of control; (dose: 1.0 mg/kg/injection, schedule: Q01DX009 (ip), vehicle: saline with Tween-80) 109 % of control; (dose: 2.0 mg/kg/injection, schedule: Q01DX009 (ip), vehicle: saline with Tween-80) 109 % of control.
